Consider two compounds from ChEMBL document CHEMBL3769397, “A new GLP-1 analogue with prolonged glucose-lowering activity in vivo via backbone-based modification at the N-terminus” (Bioorg Med Chem, 2016).

Data set [1] concerns Mus musculus. Kind of data set: Reduction in blood glucose in Kunming mouse assessed as blood glucose level at 25 nmol/kg, ip at administered 0 mins followed by first glucose challenge at 40 mins followed by second glucose challenge at 310 mins and measured at 80 mins by glucose tolerance test (reference value: 4.9 to 6.3 mmol/L). It is filed as functional.
Data set [2] deals with Mus musculus. The data set is described as follows: Reduction in blood glucose in Kunming mouse assessed as blood glucose level at 25 nmol/kg, ip at administered 0 mins followed by first glucose challenge at 40 mins followed by second glucose challenge at 310 mins and measured at 55 mins by glucose tolerance test (reference value: 4.9 to 6.3 mmol/L). It is filed as functional.

In data set [3] the test system is Mus musculus. The data set is described as follows: Reduction in blood glucose in Kunming mouse assessed as blood glucose level at 25 nmol/kg, ip at administered 0 mins followed by first glucose challenge at 40 mins followed by second glucose challenge at 310 mins and measured at 350 mins by glucose tolerance test (reference value: 4.9 to 6.3 mmol/L). Type of data set: functional.

The subject of data set [4] is Mus musculus. Kind of data set: Reduction in blood glucose in Kunming mouse assessed as blood glucose level at 25 nmol/kg, ip at administered 0 mins followed by first glucose challenge at 40 mins followed by second glucose challenge at 310 mins and measured at 40 mins by glucose tolerance test (reference value: 4.9 to 6.3 mmol/L). Type of data set: functional.
Data set [5] addresses Glucagon-like peptide 1 receptor (Homo sapiens, UniProt P43220). The data set is described as follows: Activation of human GLP1R expressed in HEK293 cells preincubated for 30 mins followed by addition of cAMP-d2 conjugate/cryptate conjugate incubated for 60 mins by fluorescence analysis. Type of data set: functional, cell-based.
Data set [6] has as its target T1, DPP4 (dipeptidyl peptidase 4) (Homo sapiens, UniProt P27487). Kind of data set: Drug degradation assessed as recombinant human DPP4-mediated cleavage by measuring compound remaining after 48 hrs by RP-HPLC analysis. It is filed as ADME. The following applies: read-out: Stability.
Data set [7] concerns the target T1, DPP4 (dipeptidyl peptidase 4). Kind of data set: Drug degradation assessed as recombinant human DPP4-mediated cleavage by measuring compound remaining after 96 hrs by RP-HPLC analysis. Type of data set: ADME. The following applies: read-out: Stability.
For data set [8], the system named is Mus musculus. The data set is described as follows: Reduction in blood glucose in Kunming mouse assessed as blood glucose peak value at 25 nmol/kg, ip at administered 0 mins followed by first glucose challenge at 40 mins followed by second glucose challenge at 310 mins and measured at 325 mins by glucose tolerance test relative to control. Also noted: scale not given: the % may be the effect or the level left. Type of data set: functional.

Data set [9] deals with T1, DPP4 (dipeptidyl peptidase 4). Kind of data set: Drug degradation assessed as recombinant human DPP4-mediated cleavage by measuring compound remaining after 72 hrs by RP-HPLC analysis. It is filed as ADME. The following applies: read-out: Stability.
Data set [10] has as its system Mus musculus. The data set is described as follows: Reduction in blood glucose in Kunming mouse assessed as blood glucose level at 25 nmol/kg, ip at administered 0 mins followed by first glucose challenge at 40 mins followed by second glucose challenge at 310 mins and measured at 310 mins by glucose tolerance test (reference value: 4.9 to 6.3 mmol/L). It is filed as functional.

Data set [11] relates to Mus musculus. The data set is described as follows: Reduction in blood glucose in Kunming mouse assessed as blood glucose AUC at 25 nmol/kg, ip at administered 0 mins followed by first glucose challenge at 40 mins measured at 80 mins by glucose tolerance test relative to control. It is filed as functional. Also noted: scale not given: the % may be the effect or the level left.

For data set [12], the system named is Mus musculus. Kind of data set: Reduction in blood glucose in Kunming mouse assessed as blood glucose level at 25 nmol/kg, ip at administered 0 mins followed by first glucose challenge at 40 mins followed by second glucose challenge at 310 mins and measured at 160 mins by glucose tolerance test (reference value: 4.9 to 6.3 mmol/L). Type of data set: functional.

Data set [13] concerns the target T1, DPP4 (dipeptidyl peptidase 4). The data set is described as follows: Drug degradation assessed as recombinant human DPP4-mediated cleavage by measuring compound remaining after 24 hrs by RP-HPLC analysis. Type of data set: ADME. The following applies: read-out: Stability.
In data set [14] the test system is Mus musculus. Kind of data set: Reduction in blood glucose in Kunming mouse assessed as blood glucose AUC at 25 nmol/kg, ip at administered 0 mins followed by first glucose challenge at 40 mins followed by second glucose challenge at 310 mins and measured at 325 mins by glucose tolerance test relative to control. Type of data set: functional. Also noted: scale not given: the % may be the effect or the level left.

The subject of data set [15] is Mus musculus. The data set is described as follows: Reduction in blood glucose in Kunming mouse assessed as blood glucose level at 25 nmol/kg, ip at administered 0 mins followed by first glucose challenge at 40 mins followed by second glucose challenge at 310 mins and measured at 325 mins by glucose tolerance test (reference value: 4.9 to 6.3 mmol/L). Type of data set: functional.

Data set [16] can be described thus: Retention time of compound over 30 mins by HPLC analysis. Type of data set: physicochemical. The following applies: 0.5 h.
Data set [17] deals with T1, DPP4 (dipeptidyl peptidase 4). The data set is described as follows: Drug degradation assessed as recombinant human DPP4-mediated cleavage by measuring compound remaining after 12 hrs by RP-HPLC analysis. It is filed as ADME. The following applies: read-out: Stability.
Data set [18] deals with Mus musculus. Kind of data set: Reduction in blood glucose in Kunming mouse assessed as blood glucose level at 25 nmol/kg, ip at administered 0 mins followed by first glucose challenge at 40 mins followed by second glucose challenge at 310 mins and measured at 385 mins by glucose tolerance test (reference value: 4.9 to 6.3 mmol/L). Type of data set: functional.
Data set [19] relates to Mus musculus. The data set is described as follows: Reduction in blood glucose in Kunming mouse assessed as blood glucose peak value at 25 nmol/kg, ip at administered 0 mins followed by first glucose challenge at 40 mins measured at 80 mins by glucose tolerance test relative to control. Type of data set: functional. Also noted: scale not given: the % may be the effect or the level left.

Data set [20] has as its target T1, DPP4 (dipeptidyl peptidase 4). Kind of data set: Half life of compound assessed as recombinant human DPP4-mediated cleavage by RP-HPLC analysis. It is filed as ADME.
For data set [21], the system named is Mus musculus. The data set is described as follows: Reduction in blood glucose in Kunming mouse assessed as blood glucose level at 25 nmol/kg, ip at administered 0 mins followed by first glucose challenge at 40 mins followed by second glucose challenge at 310 mins and measured at 430 mins by glucose tolerance test (reference value: 4.9 to 6.3 mmol/L). It is filed as functional.

Data set [22] relates to Mus musculus. Kind of data set: Reduction in blood glucose in Kunming mouse assessed as blood glucose level at 25 nmol/kg, ip at administered 0 mins followed by first glucose challenge at 40 mins followed by second glucose challenge at 310 mins and measured at 115 mins by glucose tolerance test (reference value: 4.9 to 6.3 mmol/L). It is filed as functional.

A value given as a limit tells only on which side of the number the result lay.

T1 sequence (P27487 whole entry): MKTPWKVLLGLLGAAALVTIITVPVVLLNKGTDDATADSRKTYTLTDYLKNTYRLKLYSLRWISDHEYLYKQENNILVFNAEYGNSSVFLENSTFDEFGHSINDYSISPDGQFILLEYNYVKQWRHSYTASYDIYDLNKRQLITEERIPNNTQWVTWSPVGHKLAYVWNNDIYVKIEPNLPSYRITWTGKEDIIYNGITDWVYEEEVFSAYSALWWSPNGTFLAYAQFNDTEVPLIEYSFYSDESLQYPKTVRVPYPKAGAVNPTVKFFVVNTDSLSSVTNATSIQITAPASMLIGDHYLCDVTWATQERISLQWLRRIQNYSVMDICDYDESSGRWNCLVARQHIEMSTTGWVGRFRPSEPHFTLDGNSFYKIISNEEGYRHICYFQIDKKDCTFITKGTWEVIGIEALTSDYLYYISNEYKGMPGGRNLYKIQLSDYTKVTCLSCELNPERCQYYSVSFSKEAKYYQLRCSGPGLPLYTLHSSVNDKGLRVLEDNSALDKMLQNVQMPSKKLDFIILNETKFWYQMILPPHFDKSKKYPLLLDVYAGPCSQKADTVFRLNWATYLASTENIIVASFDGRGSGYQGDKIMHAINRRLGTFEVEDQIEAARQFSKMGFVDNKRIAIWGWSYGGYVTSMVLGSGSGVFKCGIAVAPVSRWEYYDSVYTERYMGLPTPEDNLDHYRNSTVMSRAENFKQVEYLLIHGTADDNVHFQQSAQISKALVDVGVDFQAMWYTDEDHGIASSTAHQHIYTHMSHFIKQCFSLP
Sequence of Glucagon-like peptide 1 receptor (P43220 whole entry): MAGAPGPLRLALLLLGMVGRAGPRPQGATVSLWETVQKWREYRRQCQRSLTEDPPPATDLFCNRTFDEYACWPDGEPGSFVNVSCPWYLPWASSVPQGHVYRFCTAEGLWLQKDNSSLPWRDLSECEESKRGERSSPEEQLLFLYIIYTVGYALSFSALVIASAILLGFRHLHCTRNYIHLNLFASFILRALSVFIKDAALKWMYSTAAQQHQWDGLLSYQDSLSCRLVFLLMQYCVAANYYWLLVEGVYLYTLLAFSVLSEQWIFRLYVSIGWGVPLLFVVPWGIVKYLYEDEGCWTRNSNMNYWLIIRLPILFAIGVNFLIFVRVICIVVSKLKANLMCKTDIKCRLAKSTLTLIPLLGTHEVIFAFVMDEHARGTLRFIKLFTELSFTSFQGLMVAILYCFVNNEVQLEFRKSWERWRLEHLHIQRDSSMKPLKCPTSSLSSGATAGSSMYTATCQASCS

With `CC[C@H](C)[C@H](NC(=O)[C@H](Cc1ccccc1)NC(=O)[C@H](CCC(=O)O)NC(=O)[C@H](CCCCN)NC(=O)[C@H](C)NC(=O)[C@H](C)NC(=O)[C@H](CCC(N)=O)NC(=O)CNC(=O)[C@H](CCC(=O)O)NC(=O)[C@H](CC(C)C)NC(=O)[C@H](Cc1ccc(O)cc1)NC(=O)[C@H](CO)NC(=O)[C@H](CO)NC(=O)[C@@H](NC(=O)[C@H](CC(=O)O)NC(=O)[C@H](CO)NC(=O)[C@@H](NC(=O)[C@H](Cc1ccccc1)NC(=O)[C@@H](NC(=O)CNC(=O)[C@H](CCC(=O)O)NC(=O)CCNC(=O)[C@@H](N)Cc1cnc[nH]1)[C@@H](C)O)[C@@H](C)O)C(C)C)C(=O)N[C@@H](C)C(=O)N[C@@H](Cc1c[nH]c2ccccc12)C(=O)N[C@@H](CC(C)C)C(=O)N[C@H](C(=O)N[C@@H](CCCCN)C(=O)NCC(=O)N[C@@H](CCCNC(=N)N)C(N)=O)C(C)C`, the Activity with Mus musculus [1] is listed as 16 mmol/L; in the data set on Mus musculus [2] it was 12.8 mmol/L; with Mus musculus [3] it was 16.8 mmol/L; with Mus musculus [4], 6.5 mmol/L; in the data set on Mus musculus [8] it was 84%; in the data set on Mus musculus [10] it was 6.3 mmol/L. Also, the Activity in the data set on Mus musculus [11] is reported as 63%; in the data set on Mus musculus [12] it was 7.8 mmol/L; with Mus musculus [14], 81%; in the data set on Mus musculus [15], 19.6 mmol/L; with Mus musculus [18] it was 9.8 mmol/L; in the data set on Mus musculus [19], 61%. For the same compound, the results for the Activity in the data set on Mus musculus [21] and in the data set on Mus musculus [22] were 6.8 mmol/L and 11.8 mmol/L, respectively. In [5], this compound showed an EC50 of 0.0329 nM. Moreover, the remaining at 48 h in data set [6] was determined as 100%. Besides, the remaining at 96 h in data set [7] was determined as 100%. Also, the remaining at 72 h in data set [9] is 100%. Also, the remaining at 24 h in data set [13] was determined as 100%. The Retention_time in [16] turned out to be 13.751 min. For the same compound, in data set [17], the remaining at 12 h worked out at 100%. Moreover, in [20], the half-life is greater than 96 h.
Take `CC[C@H](C)[C@H](NC(=O)[C@H](Cc1ccccc1)NC(=O)[C@H](CCC(=O)O)NC(=O)[C@H](CCCCN)NC(=O)[C@H](C)NC(=O)[C@H](C)NC(=O)[C@H](CCC(N)=O)NC(=O)CNC(=O)[C@H](CCC(=O)O)NC(=O)[C@H](CC(C)C)NC(=O)[C@H](Cc1ccc(O)cc1)NC(=O)[C@H](CO)NC(=O)[C@H](CO)NC(=O)[C@@H](NC(=O)[C@H](CC(=O)O)NC(=O)[C@H](CO)NC(=O)[C@@H](NC(=O)[C@H](Cc1ccccc1)NC(=O)[C@@H](NC(=O)CNC(=O)[C@H](CCC(=O)O)NC(=O)[C@H]1CCC[C@@H]1NC(=O)[C@@H](N)Cc1cnc[nH]1)[C@@H](C)O)[C@@H](C)O)C(C)C)C(=O)N[C@@H](C)C(=O)N[C@@H](Cc1c[nH]c2ccccc12)C(=O)N[C@@H](CC(C)C)C(=O)N[C@H](C(=O)N[C@@H](CCCCN)C(=O)NCC(=O)N[C@@H](CCCNC(=N)N)C(N)=O)C(C)C`: the Activity with Mus musculus [1] is listed as 15.9 mmol/L; in the data set on Mus musculus [2], 14.8 mmol/L; with Mus musculus [3], 19.2 mmol/L; with Mus musculus [4], 7 mmol/L; with Mus musculus [10] it was 6.2 mmol/L; with Mus musculus [12] it was 9.1 mmol/L. The Activity in the data set with Mus musculus [15] is listed as 22.8 mmol/L; with Mus musculus [18], 11.4 mmol/L; in the data set with Mus musculus [21] it was 8.7 mmol/L; in the data set on Mus musculus [22] it was 11.5 mmol/L. The EC50 in [5] came out at 0.0766 nM. The remaining at 48 h in data set [6] is 100%. For the same compound, the remaining at 96 h in data set [7] was found to be 100%. The remaining at 72 h in [9] came to 100%. Besides, in [13], the remaining at 24 h worked out at 100%. In [16], the Retention_time is given as 13.997 min. Moreover, in data set [17], the remaining at 12 h came to 100%. Moreover, the half-life in data set [20] was greater than 96 h.
